“Also recorded” adds a separate entry of the source.
What was measured:
[1] = cited from earlier work
C57BL/6J mice = test: Acute tunicamycin-induced NAFLD/NASH model: histological liver damage score; format: in vivo, mouse; settings: 60 mg/kg/d in drinking water, 3 mice with and 3 without NAM, 48 h after tunicamycin 2 μg/g i.p., FIG. 4
Procedure: In order to extend the findings of von Schönfels et al. 2014 (Liver Int. doi: 10.1111/liv.12476) with NA in a chronic model of NAFLD, the effect of NAM was investigted in an acute murine model of NASH (Lee et al. 2012, Toxicol. Lett. 211:29). C57BL/6J mice (n=6; age: 12-13 weeks) were injected intraperitoneally with tunicamycin (TM; 2 μg/g body weight). After 48 h, the mice were sacrificed and liver tissue was collected for histological analysis of signs of NAFLD/NASH as described previously (Lee et al. 2012, Toxicol. Lett. 211:29). NAM was administered to three of the six mice in the drinking water from 2 days before the TM challenge until the end of the experiment. NAM was administered at 0.4 g/l, corresponding to approximately 60 mg/kg/d (assumptions from general averages: body weight of a mouse: 20 g; water intake: 3 mL/mouse/d; 3 mL with a concentration of 0.4 g/L contained 1.2 mg NAM, resulting in a dose of approximately 60 mg/kg/d).
Paraffin-embedded liver tissue sections (3 μm) from mice after TM challenge were subjected to hematoxylin/eosin staining and scored in a blinded manner. Hepatic steatosis, hepatocyte ballooning and inflammation were determined in a scoring system modified from Brunt 2001 (Semin. Liver Dis. 21:3). The stage scores were based on liver fibrosis. The 0-3 grading includes: 0, none; 1, mild; 2, moderate; and 3, severe.

SMILES	recommended maximum nutritional doses ([1]; adults, SCF/CS/NUT/UPPLEV/39)	tunicamycin-induced NAFLD/NASH liver damage score (C57BL/6J mice)	doses above which side effects including flush, tachycardia, blood pressure dysregulation and diarrhea have to be anticipated ([1]; Carlson 2005, German Federal Institute for Risk Assessment) [mg/day]	tolerable upper intake level without anticipated side effects ([1]; adults, European Scientific Committee on Food) [mg/day]
NC(=O)c1cccnc1 [NAM, nicotinamide]	up to 900 mg/d	small, but significant reduction; also recorded: moderate, but significant protection	–	–
O=C(O)c1cccnc1 [nicotinic acid]	–	–	100 to 300	10
